Reference: patent US10227327B2, “Inhibitors of metallo-beta-lactamase (MBL) comprising a zinc chelating moiety” (Universitetet I Oslo, priority 2013, dated 2019)

Legend:
[1] = target: VIM-2 (Escherichia coli, UniProt Q5U7L7); assay: IC50 determination against purified MBL, nitrocefin reporter substrate; format: biochemical; conditions: purified enzyme 1 nM, nitrocefin 50 μM, 25° C.
Procedure: (§1) General Protocol for Determination of IC50-Values
(§2) Buffers: A: 50 mM HEPES pH 7.2, 100 μM ZnCl2
(§3) • B: 50 mM HEPES pH 7.2, 100 μM ZnCl2 and 400 μg/ml Bovine Serum Albumin (BSA) Equipment: SpectraMax 96 well reader • 96 well plates • Cuvettes • General plastics: dilution tubes, eppendorfs etc. Method: Inhibitors: a. Dissolved in 100% DMSO at a concentration of 10 mM • b. Dissolve the inhibitor in buffer A to a concentration of 25% DMSO. No more than 2.5% DMSO is tolerable in the assay. 100% DMSO (10 mM); […]; […] • c. Make a 2-fold dilution series of the inhibitor. At least 8 dilutions should be made. See example in table 1 Reporter Substrate (Nitrocefin): • a. Dilute a small amount of nitrocefin in 1 ml of DMSO • b. Add 990 μl buffer A+10 μl of nitrocefin to a cuvette. • c. Measure initial OD at absorbance specific for the substrate • d. Add purified enzyme to the cuvette and let the hydrolysis run to completion (the more concentrated the enzyme the faster the hydrolysis will run) • e. Measure the end OD • f. Calculate the concentration of substrate: [(End OD−Initial OD)×dilution factor]/Δε (Δε Nitrocefin=17400) • g. Dilute nitrocefin to 100 μM in buffer A Enzyme: Dilute purified enzyme in buffer B to a concentration of 10 nM. Assay: a. Set the settings and temperature on the Spectramax/software: • I. Kinetics • II. λ: 482 • III. Time: 20 min • IV. Interval: 2-5 sec. • V. Mix before 1st read: 5 sec. • VI. Temp: 25° C. • b. Add 30 μl buffer A, 10 μl purified enzyme (final concn. 1 nM), and 10 μl inhibitor to assay wells (duplicates for each inhibitor concentration). Also include a negative control. Wells with no added inhibitor, just 40 μl buffer A. See illustration in table 1. • c. Incubate the plate in the reader for 5 min. • d. Add 50 μl nitrocefin (final concn. 50 μM) to assay wells. This should be done quickly—preferably with an electronic multi-channel pipette. • e. Start the readings immediately. Determine: the initial velocity (V0) for each inhibitor concentration and calculate IC50.

[2] = target: GIM-1 (Pseudomonas aeruginosa, UniProt Q704V1); assay: as above; format: biochemical; conditions: purified enzyme 1 nM, nitrocefin 50 μM, 25° C.
GIM-1, sequence (Q704V1 19-250 limits assumed): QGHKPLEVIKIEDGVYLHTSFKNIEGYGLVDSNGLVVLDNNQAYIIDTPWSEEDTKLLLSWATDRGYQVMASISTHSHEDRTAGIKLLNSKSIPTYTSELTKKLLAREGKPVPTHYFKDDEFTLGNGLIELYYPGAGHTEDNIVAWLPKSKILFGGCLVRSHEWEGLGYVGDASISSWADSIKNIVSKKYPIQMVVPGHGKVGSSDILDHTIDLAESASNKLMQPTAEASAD
Procedure: as §1, §2, §3

[3] = target: GIM-1 in E. coli SNO3 containing pET26b-blaGIM-1 (Pseudomonas aeruginosa, UniProt Q704V1); assay: MBL inhibition in whole E. coli cells expressing MBL (nitrocefin hydrolysis); format: cell-based; conditions: whole cell, test substance 250 μM
GIM-1 in E. coli SNO3 containing pET26b-blaGIM-1, sequence (Q704V1 19-250 limits assumed): as above

[4] = target: VIM-2 in E. coli SNO3 containing pET26b-blaVIM-2 (Escherichia coli, UniProt Q5U7L7); assay: as above; format: cell-based; conditions: whole cell, test substance 250 μM
[5] = target: NDM-1 (Klebsiella pneumoniae, UniProt C7C422); assay: IC50 determination against purified MBL, nitrocefin reporter substrate; format: biochemical; conditions: purified enzyme 1 nM, nitrocefin 50 μM, 25° C.
NDM-1, sequence (C7C422 whole entry, looked up, species assumed): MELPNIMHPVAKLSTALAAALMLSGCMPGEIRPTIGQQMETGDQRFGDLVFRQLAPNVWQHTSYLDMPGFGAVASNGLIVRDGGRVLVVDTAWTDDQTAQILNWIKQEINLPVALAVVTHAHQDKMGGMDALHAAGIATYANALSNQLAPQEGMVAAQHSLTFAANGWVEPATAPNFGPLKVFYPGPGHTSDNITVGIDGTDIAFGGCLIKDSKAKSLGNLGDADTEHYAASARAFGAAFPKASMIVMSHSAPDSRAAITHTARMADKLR
Procedure: as §1, §2, §3

[6] = tested on: MBL-negative clinical strains; assay: Synergy with meropenem in MBL-negative clinical strains; format: cell-based
Procedure: (§4) General Protocol for Microbroth Dilution Method for Evaluating Antibacterial Activity of Compounds or Synergistic Effect of Compound-Antibiotic Combination
(§5) • Plate bacterial strain(s) on appropriate media: • Gram-negative bacteria with ESBLs or carbapenemases: green agar plates with 100 mg/L ampicillin • Gram-negative bacteria without β-lactamases: green agar plates • Gram-positive bacteria (Staphylococci and Enterococci): blood agar plates • Incubate o.n. at 37° C. Day 2: Prepare the Bacterial Inoculum: • Prepare a 0.5 McFarland suspension of bacteria in 0.85% NaCl. (Should be used within 15 min of preparation). • Dilute the 0.5 McFarland suspension 1:100 into MH broth. Check the inoculum by diluting the prepared bacterial suspension 1:100 (10 μl bacterial suspension+990 μl 0.85% NaCl). Plate 10 μl of the dilution on MH agar plates (×2). Incubate o.n. at 37° C., count the colonies and calculate the final CFU/ml inoculum in the plate by multiplying the average number of colonies with 10000 and divide by 2. The final inoculum should be between 3-7×10^5 CFU/ml. • Add 50 μl of the prepared bacterial suspension to each well in the microtiter plate except negative growth control. Preparation of Compounds/Antibiotics • Calculate the desired concentration-range and volume of the compounds/antibiotics in the assay. […] Dilute the stock solution in MH broth. […]

[7] = tested on: E. coli 50739467 (MBL negative); assay: Microbroth dilution, meropenem MIC with/without compound; format: cell-based; conditions: 50739467 E. coli MBL negative; for Meropenem MIC (mg/L) in presence of compound: compound at 125 μM
Procedure: as §4
(§6) • Plate bacterial strain(s) on appropriate media: • Gram-negative bacteria with ESBLs or carbapenemases: green agar plates with 100 mg/L ampicillin • Gram-negative bacteria without β-lactamases: green agar plates • Gram-positive bacteria (Staphylococci and Enterococci): blood agar plates • Incubate o.n. at 37° C. Day 2: Prepare the Bacterial Inoculum: • Prepare a 0.5 McFarland suspension of bacteria in 0.85% NaCl. (Should be used within 15 min of preparation). • Dilute the 0.5 McFarland suspension 1:100 into MH broth. Check the inoculum by diluting the prepared bacterial suspension 1:100 (10 μl bacterial suspension+990 μl 0.85% NaCl). Plate 10 μl of the dilution on MH agar plates (×2). Incubate o.n. at 37° C., count the colonies and calculate the final CFU/ml inoculum in the plate by multiplying the average number of colonies with 10000 and divide by 2. The final inoculum should be between 3-7×10^5 CFU/ml. • Add 50 μl of the prepared bacterial suspension to each well in the microtiter plate except negative growth control. Preparation of Compounds/Antibiotics • Calculate the desired concentration-range and volume of the compounds/antibiotics in the assay. […] Dilute the stock solution in MH broth. Make subsequent 2-fold dilutions in MH broth of the desired concentrations if a concentration range is to be tested (remember the extra dilution factor in the assay plate). Always include extra volume for pipetting. Take into consideration stock solutions that are made in buffers that have an effect on bacterial growth (e.g. DMSO). Assay: • Determining the MIC of compounds/antibiotics alone: • Add 25 μl of each concentration of compound/antibiotic to row 2-11 (highest concentration in row 2) • Add 25 μl MH broth to row 2-11 • Add 50 μl MH broth to row 12 (positive control) • Add 100 μl MH broth to row 1 • Add 50 μl bacterial suspension to row 2-12. • Determining the MIC of antibiotics+compounds: • Add 25 μl of each concentration of antibiotic to row 2-11 (highest concentration in row 2) • Add 25 μl of compound to row 2-11 • Add 50 μl MH broth to row 12 (positive control) • Add 100 μl MH broth to row 1 • Add 50 μl bacterial suspension to row 2-12. • Incubate the plate for 20 hrs at 37° C. and determine the MIC in the presence and absence of inhibitor.

[8] = tested on: K. pneumoniae 50732159 (MBL negative); assay: as above; format: cell-based; conditions: 50732159 K. pneumoniae MBL negative; for Meropenem MIC (mg/L) in presence of compound: compound at 125 μM
Procedure: as §4, §6

[9] = tested on: P. aeruginosa 50808021 (MBL negative); assay: as above; format: cell-based; conditions: compound at 125 μM; 50808021 P. aeruginosa MBL negative
Procedure: as §4, §6

[10] = tested on: MBL-producing P. aeruginosa, K. pneumoniae and E. coli; assay: Synergy with meropenem in MBL-producing clinical strains; format: cell-based; conditions: compound 125 μM
Procedure: as §4, §5

[11] = tested on: K. pneumoniae A3-81 (VIM-1); assay: Microbroth dilution, meropenem MIC with/without compound; format: cell-based; conditions: absence of inhibitor; A3-81 K. pneumoniae VIM-1
Procedure: as §4, §6

[12] = tested on: K. pneumoniae K66-45 (NDM-1); assay: as above; format: cell-based; conditions: absence of inhibitor; K66-45 K. pneumoniae NDM-1
Procedure: as §4, §6

[13] = tested on: E. coli 50639799 (VIM-1); assay: as above; format: cell-based; conditions: absence of inhibitor; 50639799 E. coli VIM-1
Procedure: as §4, §6

[14] = tested on: E. coli K71-77 (NDM-1); assay: as above; format: cell-based; conditions: absence of inhibitor; K71-77 E. coli NDM-1
Procedure: as §4, §6

| Structure (SMILES) | IC50 [1] [µM] | IC50 [2] [µM] | inhibition at 250 µM [3] [%] | inhibition at 250 µM [4] [%] | IC50 [5] [µM] | further results |
| --- | --- | --- | --- | --- | --- | --- |
| O=[N+]([O-])c1ccc(Cn2cc(CN(Cc3ccccn3)Cc3ccccn3)nn2)cc1 [Example 6, 1-(1-(4-nitrobenzyl)-1H-1,2,3-triazol-4-yl)-N,N-bis(pyridin-2-ylmethyl)methanamine] | 40.9 | 0.71 | 20.6 | 82.1 |  |  |
| COc1ccc(-n2cc(CN(Cc3ccccn3)Cc3ccccn3)nn2)c(OC)c1 [Example 11, 1-(1-(2,4-dimethoxyphenyl)-1H-1,2,3-triazol-4-yl)-N,N-bis(pyridin-2-ylmethyl)methanamine] | 12.2 | 0.86 | 16.5 | 75.1 |  |  |
| COc1ccc(Cn2cc(CN(Cc3ccccn3)Cc3ccccn3)nn2)cc1Br [Example 9] | 19 | 3.15 | 14.8 | 84.2 | 0.6 |  |
| COc1cc(Cn2cc(CN(Cc3ccccn3)Cc3ccccn3)nn2)cc(OC)c1OC [Example 7, 1-(pyridin-2-yl)-N-(pyridin-2-ylmethyl)-N-((1-(3,4,5-trimethoxybenzyl)-1H-1,2,3-triazol-4-yl)methyl)methanamine] | 18.7 | 0.14 | 12.5 | 75.3 |  |  |
| C[C@@H](N)C(=O)N[C@H](C)C(=O)NCCc1ccc(NC(=O)CN(Cc2ccccn2)Cc2ccccn2)cc1.Cl [Example 24, (R)-1-(((R)-1-((4-(2-(bis(pyridin-2-ylmethyl)amino)acetamido)phenethyl)amino)-1-oxopropan-2-yl)amino)-1-oxopropan-2-aminium chloride] | 22.8 | 0.4 | 69.2 | 98.2 | 0.52 | synergistic effect with meropenem [6]: No synergistic effect; Meropenem MIC (mg/L) in presence of compound [7]: 0.5 mg/L; Meropenem MIC (mg/L) in presence of compound [8]: 32 mg/L; Meropenem MIC (mg/L) in presence of compound [9]: 128 to 256 mg/L; synergistic activity with meropenem [10]: strong synergistic potentiation of meropenem |
| C[C@@H](O)[C@H]1C(=O)N2C(C(=O)O)=C(S[C@@H]3CN[C@H](C(=O)N(C)C)C3)[C@H](C)[C@H]12 [MEM, Meropenem] |  |  |  |  |  | Meropenem MIC [11]: 64 to 256 µg/mL; Meropenem MIC [12]: 32 to 64 µg/mL; Meropenem MIC ([7]; absence of inhibitor): 0.5 µg/mL; Meropenem MIC [13]: 8 to 16 µg/mL; Meropenem MIC [14]: 1 to 4 µg/mL; Meropenem MIC ([8]; absence of inhibitor): 32 µg/mL |
| COc1cc(-n2cc(CN(Cc3ccccn3)Cc3ccccn3)nn2)cc(OC)c1OC [Example 5, 1-(pyridin-2-yl)-N-(pyridin-2-ylmethyl)-N-((1-(3,4,5-trimethoxyphenyl)-1H-1,2,3-triazol-4-yl)methyl)methanamine] | 11.5 | 0.79 | 14.4 | 73.8 |  |  |
| COc1ccc(Cn2cc(CN(Cc3ccccn3)Cc3ccccn3)nn2)cc1 [Example 3, 1-(1-(4-methoxybenzyl)-1H-1,2,3-triazol-4-yl)-N,N-bis(pyridin-2-ylmethyl)methanamine] | 19.8 |  | 15.7 | 74 |  |  |
| COc1ccc(-n2cc(CN(Cc3ccccn3)Cc3ccccn3)nn2)cc1 [Example 13, 1-(1-(4-methoxyphenyl)-1H-1,2,3-triazol-4-yl)-N,N-bis(pyridin-2-ylmethyl)methanamine] | 24.9 | 1.43 | 20.6 | 82 | 0.72 |  |
| FC(F)(F)c1ccc(-n2cc(CN(Cc3ccccn3)Cc3ccccn3)nn2)cc1 [Example 12, 1-(pyridin-2-yl)-N-(pyridin-2-ylmethyl)-N-((1-(4-(trifluoromethyl)phenyl)-1H-1,2,3-triazol-4-yl)methyl)methanamine] | 12.9 | 1.1 | 15.7 | 64.2 |  | synergistic effect with meropenem [6]: No synergistic effect |
| COc1ccc(Cn2cc(CN(Cc3ccccn3)Cc3ccccn3)nn2)cc1[N+](=O)[O-] [Example 8, 1-(1-(4-methoxy-3-nitrobenzyl)-1H-1,2,3-triazol-4-yl)-N,N-bis(pyridin-2-ylmethyl)methanamine] | 14.8 | 1.03 | 22.2 | 83 | 1.06 |  |
| c1ccc(CN(CCN(Cc2ccccn2)Cc2ccccn2)Cc2ccccn2)nc1 [TPEN, N,N,N′,N′-tetrakis(2-pyridylmethyl) ethylenediamine, reference compound] | 0.3 | 0.61 |  |  |  | Meropenem MIC (mg/L) in presence of compound [7]: 1 mg/L; Meropenem MIC (mg/L) in presence of compound [8]: ≤0.064 mg/L; Meropenem MIC (mg/L) in presence of compound [9]: 64 mg/L; synergistic activity with meropenem [10]: Synergistic activity |
